Earlier results in patent publication US20020132021A1, “Elicited plant products” (priority 1997, published 2002).

System: indole alkaloid pathway
Conditions: jasmonic acid addition, dosage studies

CC/C=C\C[C@H]1C(=O)CC[C@@H]1CC(=O)O [Jasmonic acid]
increase in the specific yield of ajmalicine: 80%
increase in the specific yield of horhammericine: 500%
increase in the specific yield of lochnericine: 150%
increase in the specific yield of serpentine: 60%
